Earlier results as cited in patent publication EP0301423B1 (CHIESI FARMACEUTICI S.p.A., priority 1987, dated 1989).

Assays:
[1] = tested on: isolated coronary artery; conditions: mice
[2] = tested on: coronary flow; conditions: mice

Q: Which “effect on the isolated coronary artery” value [1] does the source give for `CCNc1cc(C)nc2ncnn12` [TP1] here?
A: relaxation of the isolated coronary artery

Q: What about the “effect on coronary flow” value [2] of the same compound?
A: increase in the coronary flow
